Measured values: patent publication US4242354A, “2-(2-Thenolythio)-propionylglycine: method for its preparation and pharmaceutical formulations containing said compound” (Mediolanum Farmaceutici S.r.L., priority 1978, dated 1980)
Where two headings read alike, the source gives them in different places.

How the values were obtained:
elderly patients = type: in vivo, man
Protocol: The drug was assessed, with respect to its mucolytic action, on thirty elderly patients ([…], maximal 87, mean age 72). […] The improvement was assessed on the basis of the following parameters:
decrease of the daily quantity of sputum;
decrease of the viscosity of the sputum;
increase of the Tiffeneau's index;
improved value of the erythrocyte sedimentation rate.
A group of twenty patients, in the same mean age, was given for control purposes a known drug such as N-acetylcysteine.

mouse [1] = settings: oral, 10 animals per dose
[2] = Solubility and organoleptic properties; type: physicochemical; settings: 100 milligrams with 1 ml of distilled water
[3] = background; cited from earlier work
in vivo [4] = settings: mouse, iv
physchem = test: physchem
Protocol: (§1) The stability tests were carried out according to the Rogers' nonisothermic method suitably integrated by the evaluation of physical data, melting point, weight variation, and spectrophotometric assay. For each single compound, the tests were performed on a series of samples, with the weight of 100 milligrams, added for the wet tests with 1 ml of distilled water. […] The sample were kept in a thermostat at increasing temperatures, i.e. from 25° to 80° C. […] The temperature, programmed according to the Rogers' formula, resulted to be 40° C. at the end of the first hour, 50° C. at the end of the second hour, 57° C. at the end of the third hour, 63° C. at the end of the fourth hour, 69° C. at the end of the fifth hour, 73° C. at the end of the sixth hour, 77° C. at the end of the seventh hour and, as already specified, 80° C. at the end of the eighth hour.
(§2) In the case of the wet-treated samples, the final weight was only established on the samples No. 10 brought to dryness at 60° C. under vacuum after an 8-hour heating.

in vivo [5] = settings: mouse, po
[6] = Stability test: melting point before and after heating; type: physicochemical
Protocol: as §1
The melting point was established in a capillary tube, under identical conditions, on the samples No. 5 after heating for 8 hours in the previously specified conditions, and on the samples No. 10 after heating and evaporation to dryness as previously specified.

[7] = Rogers' nonisothermic method: energies of activation, specific velocities, validity periods; type: physicochemical
Protocol: as §1
The data shown in Table 7 were worked out according to the Rogers' method, drawing up the values of the energies of activation of the decomposition reactions under dry and wet conditions, the specific rate constants as well as the validity period.

mercuric chloride = test: In vivo protective action against mercurial compounds; set-up: species or system male mice (Swiss strain); settings: 300 mg/kg ip, mercuric chloride 20 mg/kg ip, mice, 24 hours
Protocol: Forty male mice (Swiss strain, 22 grams mean bodyweight) were used for the investigation, subdivided into 4 groups treated as follows:
(1) mercuric chloride, 20 mg/kg/intraperitoneally;
(4) mercuric chloride 20 mg/kg/intraperitoneally+2-thiopropionylglycine 300 mg/kg/intraperitoneally.
Deaths occurred were recorded hourly in the first 5 hours, and thereafter after 24 hours.

mouse [8] = settings: intravenous, 10 animals per dose
in vivo [9] = settings: rat, in vivo
Protocol: (§3) Hundred-and-forty (140) albino rats, Sprague-Dawley strain, bodyweight 120-135 grams, subdivided into groups each consisting of 5 animals, were used for the investigation. […] For each single compound the LD 50 was assessed according to Litchfield and Wilcoxon on the basis of the mortality rate encountered in the 7 days following the treatment.

rat = test: in vivo; settings: 10 animals per dose
Protocol: as §3

[10] = system: carbon tetrachloride poisoning; test: Protective activity in the carbon tetrachloride poisoning; type: in vivo, male rats (Sprague-Dawley); settings: CCl4 0.5 ml/mg sc, 7 days; drugs intramuscularly, (I) 200 and 300 mg/kg, (II) 300 mg/kg
Protocol: Fifty male rats (Sprague-Dawley, 180-200 grams bodyweight) were used for the investigation, subdivided into 5 groups: one group was given no treatment while the remaining 4 groups were poisoned for 7 consecutive days with CCl4 at the dosage of […] given subcutaneously.

bromobenzene poisoning = test: Protective activity in the bromobenzene poisoning; type: in vivo, male rats (Sprague-Dawley); settings: 300 mg/kg oral, vs investigational compound
Protocol: Fifty male rats (Sprague-Dawley, 180-200 g bodyweight) were used for the investigation, subdivided into 5 groups, each consisting of 10 animals, given orally the following compounds
(1) 5 percent gum arabic in tap water
(2) 5 percent gum arabic in tap water
(3) 2-(2-thenoylthio)-propionylglycine--200 mg/kg
(4) 2-(2-thenoylthio)-propionylglycine--300 mg/kg
Seven days later, the animals of the groups 2-3-4-[…] were given bromobenzene subcutaneously (150 mg/rat) while the remaining group (control) was given an equivalent volume of saline. Still seven days later, 5 of the animals of each group were given Nembutal (25 mg/kg/intraperitoneally), and the sleeping time was calculated.
The remaining 5 animals of each group were given bromophthalein at the dose of 50 mg intravenously; thirty minutes later, the animals were sacrificed and both the present bromophthalein and SGPT (serum glutamic pyruvic transaminase) were established in the blood.

[11] = Stability test: physical properties and weight variations on heating; type: physicochemical
Protocol: as §1
Still in Table 5, the sample from 1 to 5 refer, for each of the two compounds, to the dry substance while the samples from 6 to 10 refer to the solution or to the aqueous suspension obtained as above specified.
as §2

[12] = sample 1, dry, 1 hour 30 minutes
[13] = sample 3, dry, 5 hours 15 minutes
[14] = sample 5, dry, 8 hours, listed as 2-thiopropionylglycine
[15] = sample 10, wet, 8 hours, brought to dryness

CC(=O)N[C@@H](CS)C(=O)O [N-acetylcysteine, reference compound]
fit of cough on aerosol administration (elderly patients; in vivo): frequently happens
decrease of the sputum, comparison of (I) and N-acetylcysteine (elderly patients; twenty control patients on N-acetylcysteine): overall comparable with those provided by the compound (I)

CC(S)C(=O)NCC(=O)O (centres unmarked) [compound (II), 2-mercaptopropionylglycine, reference compound]
No. Animals Dead (mouse [1]; 1500 mg/kg): 0
No. Animals Dead (mouse [1]; 2000 mg/kg): 1
No. Animals Dead (mouse [1]; 2500 mg/kg (highest dose)): 2
appearance in water [2]: clear solution
stability (known) [3]: low stability
mortality (in vivo [4]; 500 mg/kg): 0%
mortality (in vivo [4]; 750 mg/kg): 0%
mortality (in vivo [4]; 1000 mg/kg): 10%
Content (physchem): 101.43%
E at 232 nm (physchem; as such): 0.329
remaining at 1.5 h (physchem; dry): 101%
remaining at 3 h (physchem; dry): 101%
remaining at 5.25 h (physchem; dry): 99.5%
remaining at 8 h (physchem; dry): 98.4%
E at 232 nm (physchem; sample 1, dry): 0.325
E at 232 nm (physchem; sample 2, dry): 0.324
E at 232 nm (physchem; sample 3, dry): 0.325
E at 232 nm (physchem; sample 4, dry): 0.324
E at 232 nm (physchem; sample 6, wet): 0.333
E at 232 nm (physchem; sample 7, wet): 0.325
E at 232 nm (physchem; sample 8, wet): 0.320
E at 232 nm (physchem; sample 9, wet): 0.300
mortality (in vivo [5]; 1500 mg/kg): 0%
mortality (in vivo [5]; 2000 mg/kg): 10%
mortality (in vivo [5]; 2500 mg/kg): 20%
melting point variation ([6]; after heating): marked decrease of the melting point in the case of the wet sample
Final m.p. wet conditions (Sample 10) ([6]; after heating 8 hours wet and evaporation to dryness): 86-88 °C
Final m.p. dry conditions (Sample 5) ([6]; after heating for 8 hours, dry): 92-94 °C
Initial m.p. ([6]; before heating): 93-95 °C
Energy of activation of the decomposition reaction ([7]; dry): 15.66 kcal/mol
Energy of activation of the decomposition reaction ([7]; wet): 11.54 kcal/mol
deaths (mercuric chloride): 10%
No. Animals Dead (mouse [8]; 500 mg/kg): 0
No. Animals Dead (mouse [8]; 750 mg/kg): 0
No. Animals Dead (mouse [8]; 1000 mg/kg): 1
LD50 at 168 h (in vivo [9]; im): 1630 mg/kg
mortality at 168 h (in vivo [9]; im, 1500 mg/kg): 20%
mortality at 168 h (in vivo [9]; im, 1750 mg/kg): 60%
mortality at 168 h (in vivo [9]; im, 2000 mg/kg): 100%
mortality at 168 h (in vivo [9]; po, 1500 mg/kg): 0%
mortality at 168 h (in vivo [9]; po, 2000 mg/kg): 0%
mortality at 168 h (in vivo [9]; po, 2500 mg/kg): 20%
No. Animals Dead (rat; intramuscular, 1500 mg/kg): 2
No. Animals Dead (rat; intramuscular, 1750 mg/kg): 6
No. Animals Dead (rat; intramuscular, 2000 mg/kg): 10
No. Animals Dead (rat; oral, 1500 mg/kg): 0
No. Animals Dead (rat; oral, 2000 mg/kg): 0
No. Animals Dead (rat; oral, 2500 mg/kg (highest dose)): 2
liver weight increase consequent to CCl4 [10]: can prevent the liver weight increase
liver protective effect (bromobenzene poisoning): lower than that induced by the investigational compound, and statistically not significant
Color [11, 12]: white
Weight Fin. [11, 12]: 98.3 mg
Weight Variations [11, 12]: -5.4%
Color ([11]; sample 2, dry, 3 hours): white
Weight Fin. ([11]; sample 2, dry, 3 hours, listed as 2-thiopropionylglycine): 93.0 mg
Color [11, 13]: white
Weight Fin. [11, 13]: 94.8 mg
Weight Variations [11, 13]: -5.67%
Color ([11]; sample 4, dry, 8 hours): white
Weight Fin. ([11]; sample 4, dry, 8 hours): 95.7 mg
Weight Variations ([11]; sample 4, dry, 8 hours): -5.53%
Weight Fin. [11, 14]: 198.9 mg
Weight Variations [11, 14]: -2.83%
Color ([11]; sample 6, wet): colorless
Color ([11]; sample 7, wet): colorless
Color ([11]; sample 8, wet): colorless
Color ([11]; sample 9, wet): yellowish
Weight Fin. [11, 15]: 193.8 mg
Weight Variations [11, 15]: -3.1%
